Assay results: the supplement of paper PMC9265050, “Inhibition of RNA Binding in SND1 Increases the Levels of miR-1-3p and Sensitizes Cancer Cells to Navitoclax” (Cancers, 2022)

Test system: SW480
Assay: drug sensitivity score (DSS, integrated dose-response area); higher = more sensitive (stronger viability reduction); extreme values may be limits of the assay
Procedure, shortened: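 SW480 cells stably carrying doxycycline-inducible control or SND1-targeting shRNA were treated with 0.1 µg/mL doxycycline for 7 days. Cells were then seeded at 1000 per well into 384-well plates containing 525 commercially available small-molecule inhibitors at five concentrations, and viability was measured with CellTiter-Glo after 72 h. The drug sensitivity score integrates the area under a fitted non-linear dose–response model.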

[1] = shRNA: SND1 shRNA1 (SND1 silenced)
[2] = shRNA: SND1 shRNA2 (SND1 silenced)
[3] = shRNA: control shRNA (non-targeting)

Structure (SMILES)	drug sensitivity score [1]	drug sensitivity score [2]	drug sensitivity score [3]
CCN1CCN(c2ccc(Nc3cc(N(C)C(=O)Nc4c(Cl)c(OC)cc(OC)c4Cl)ncn3)cc2)CC1 [NVP-BGJ398]	0 DSS	0 DSS	0 DSS
COc1ccc(-c2ccc3ncc4c(c3c2)n(-c2ccc(N3CCNCC3)c(C(F)(F)F)c2)c(=O)n4C)cn1 [NVP-BGT226]	18.6 DSS	20.6 DSS	19 DSS
CNC(=O)c1ccc(-c2cnc3ncc(Cc4ccc5ncccc5c4)n3n2)cc1F [NVP-INC280]	0 DSS	5.7 DSS	5.8 DSS
CC1(C)CCC(c2ccc(Cl)cc2)=C(CN2CCN(c3ccc(C(=O)NS(=O)(=O)c4ccc(N[C@H](CCN5CCOCC5)CSc5ccccc5)c(S(=O)(=O)C(F)(F)F)c4)cc3)CC2)C1 [Navitoclax]	7.4 DSS	5.6 DSS	0 DSS
COc1nc(N)nc2c1ncn2[C@@H]1O[C@H](CO)[C@@H](O)[C@@H]1O [Nelarabine]	0 DSS	0 DSS	0 DSS
CCOc1cc2ncc(C#N)c(Nc3ccc(OCc4ccccn4)c(Cl)c3)c2cc1NC(=O)/C=C/CN(C)C [Neratinib]	3.9 DSS	4.3 DSS	4 DSS
Cc1cn(-c2cc(NC(=O)c3ccc(C)c(Nc4nccc(-c5cccnc5)n4)c3)cc(C(F)(F)F)c2)cn1 [Nilotinib]	2.6 DSS	3.8 DSS	1.6 DSS
CC1(C)NC(=O)N(c2ccc([N+](=O)[O-])c(C(F)(F)F)c2)C1=O [Nilutamide]	0 DSS	0 DSS	0 DSS
COC(=O)c1ccc2c(c1)NC(=O)/C2=C(\Nc1ccc(N(C)C(=O)CN2CCN(C)CC2)cc1)c1ccccc1 [Nintedanib]	8.4 DSS	6.8 DSS	0 DSS
NC(=O)c1cccc2cn(-c3ccc([C@@H]4CCCNC4)cc3)nc12 [Niraparib]	3.3 DSS	1.1 DSS	4.9 DSS
COc1ccc(C2=N[C@@H](c3ccc(Cl)cc3)[C@@H](c3ccc(Cl)cc3)N2C(=O)N2CCNC(=O)C2)c(OC(C)C)c1 [Nutlin-3]	0 DSS	0 DSS	0.2 DSS
COc1cccc2cc(-c3nc([C@H]4CC[C@H](C(=O)O)CC4)n4ncnc(N)c34)[nH]c12 [OSI-027]	5.4 DSS	7.1 DSS	2.5 DSS
O=C(Nc1ccc(OC(F)(F)F)cc1)c1sccc1NCc1ccnc2ccccc12 [OSI-930]	1.8 DSS	6.5 DSS	6.3 DSS
CC(=O)c1cnc2ccc(-c3cc(Cl)c(O)c(Cl)c3)nc2c1N[C@H]1CC[C@H](CN(C)C)CC1 [OTSSP167]	9.8 DSS	8.7 DSS	10.6 DSS
Cc1sc2c(c1C)C(c1ccc(Cl)cc1)=N[C@@H](CC(=O)Nc1ccc(O)cc1)c1nnc(C)n1-2 [OTX015]	1.9 DSS	0.8 DSS	0.7 DSS
COC1=CC(c2cc3ccccc3[nH]2)=N/C1=C\c1[nH]c(C)cc1C [Obatoclax]	2.5 DSS	0 DSS	0.1 DSS
O=C(c1cc(Cc2n[nH]c(=O)c3ccccc23)ccc1F)N1CCN(C(=O)C2CC2)CC1 [Olaparib]	2.7 DSS	0 DSS	0 DSS
COC(=O)C[C@](O)(CCCC(C)(C)O)C(=O)O[C@@H]1C(OC)=C[C@]23CCCN2CCc2cc4c(cc2[C@H]13)OCO4 [Omacetaxine]	21.9 DSS	23.5 DSS	23.3 DSS
COc1ncc(-c2ccc3nccc(-c4ccnnc4)c3c2)cc1NS(=O)(=O)c1ccc(F)cc1F [Omipalisib]	13.7 DSS	12.4 DSS	9.7 DSS
CC(C)c1cc(C(=O)N2Cc3ccc(CN4CCN(C)CC4)cc3C2)c(O)cc1O [Onalespib]	11.3 DSS	9.4 DSS	13.8 DSS
COC[C@H](NC(=O)c1cnc(C)s1)C(=O)N[C@@H](COC)C(=O)N[C@@H](Cc1ccccc1)C(=O)[C@@]1(C)CO1 [Oprozomib]	17.7 DSS	16.5 DSS	19 DSS
Cc1[nH]c(/C=C2\C(=O)Nc3ccccc32)c(C)c1CCC(=O)O [Orantinib]	0 DSS	0 DSS	0.1 DSS
CNC(=O)c1ccc2cc([C@@]3(O)CCn4cncc43)ccc2c1 [Orteronel]	0 DSS	0 DSS	0 DSS
C=CC(=O)Nc1cc(Nc2nccc(-c3cn(C)c4ccccc34)n2)c(OC)cc1N(C)CCN(C)C [Osimertinib]	8.5 DSS	3.6 DSS	9.6 DSS

Structure (SMILES)	drug sensitivity score [1]	drug sensitivity score [2]	drug sensitivity score [3]
O=C(O)C(=O)O.[NH-][C@@H]1CCCC[C@H]1[NH-].[Pt+2] [Oxaliplatin]	14 DSS	–	16.7 DSS
C=CCc1cccc(/C=N/NC(=O)CN2CCN(Cc3ccccc3)CC2)c1O [PAC-1]	6.8 DSS	6.3 DSS	7 DSS
O=C(Nc1cccnc1)N1CCC(Cc2cccc(Oc3ccc(C(F)(F)F)cn3)c2)CC1 [PF-3845]	0.1 DSS	2.4 DSS	0.3 DSS
COc1ccccc1S(=O)(=O)Nc1ccc2c(c1)CN(C)C(=O)N2 [PFI-1]	1.8 DSS	0.5 DSS	0.4 DSS
CN1CCN(c2cc(C(=O)Nc3ccc4c(c3)-c3c(c(C(N)=O)nn3-c3ccc(F)cc3)CC4)c(Cl)cn2)CC1 [PHA 408]	5.3 DSS	–	5.2 DSS
CCn1nnc2c(N3CCOCC3)nc(-c3ccc(NC(=O)Nc4ccc(C(=O)N5CCN(C)CC5)cc4)cc3)nc21 [PKI-402]	6 DSS	6.6 DSS	8.2 DSS
O=C(Nc1cc(Cl)cc2c1[nH]c1cnccc12)c1cccnc1 [PS-1145]	0.4 DSS	0 DSS	1.8 DSS
COc1cc(Br)c(Nc2nc(-c3c(C)nc4ncccn34)cs2)c(Br)c1 [PTC-209]	6.7 DSS	2.2 DSS	7.1 DSS
CC(=O)O[C@H]1C(=O)[C@@]2(C)[C@H]([C@H](OC(=O)c3ccccc3)[C@]3(O)C[C@H](OC(=O)[C@H](O)[C@@H](NC(=O)c4ccccc4)c4ccccc4)C(C)=C1C3(C)C)[C@]1(OC(C)=O)CO[C@@H]1C[C@@H]2O [Paclitaxel]	11.5 DSS	12.5 DSS	14.1 DSS
C1=N/C2=N/c3ccc(OCCN4CCCC4)c(c3)COC/C=C/COCc3cccc(c3)C(=C1)N2 [Pacritinib]	9.6 DSS	–	10 DSS
CC(=O)c1c(C)c2cnc(Nc3ccc(N4CCNCC4)cn3)nc2n(C2CCCC2)c1=O [Palbociclib]	10.6 DSS	10.4 DSS	6.6 DSS
COc1ccc(COc2cc3oc(=O)c4cc(C(C)O)ccc4c3cc2OC)cc1 (stereo not drawn) [Palomid-529]	0 DSS	0 DSS	1.7 DSS
Cc1[nH]c2ccccc2c1CCNCc1ccc(/C=C/C(=O)NO)cc1 [Panobinostat]	19.9 DSS	19.2 DSS	17.4 DSS
C/C(=C\c1csc(C)n1)[C@@H]1C[C@@H]2O[C@]2(C)CCC[C@H](C)[C@H](O)[C@@H](C)C(=O)C(C)(C)[C@@H](O)CC(=O)O1 [Patupilone]	17.9 DSS	18.3 DSS	18.4 DSS
Cc1ccc(Nc2nccc(N(C)c3ccc4c(C)n(C)nc4c3)n2)cc1S(N)(=O)=O [Pazopanib]	0.5 DSS	7.1 DSS	1.8 DSS
CCOc1cc2ncc(C#N)c(Nc3ccc(F)c(Cl)c3)c2cc1NC(=O)/C=C/CN(C)C [Pelitinib]	7.8 DSS	8.6 DSS	12.3 DSS
Nc1nc2[nH]cc(CCc3ccc(C(=O)N[C@@H](CCC(=O)O)C(=O)O)cc3)c2c(=O)[nH]1 [Pemetrexed]	9.9 DSS	–	6.5 DSS
OC[C@H]1O[C@@H](n2cnc3c2N=CNC[C@H]3O)C[C@@H]1O [Pentostatin]	1.6 DSS	3.5 DSS	2.9 DSS
CCCCCCCCCCCCCCCCCCOP(=O)([O-])OC1CC[N+](C)(C)CC1 [Perifosine]	2.3 DSS	–	3.7 DSS
NS(=O)(=O)OC[C@@H]1C[C@@H](n2ccc3c(N[C@H]4CCc5ccccc54)ncnc32)C[C@@H]1O [Pevonedistat]	4.5 DSS	–	8.2 DSS
FC(F)(F)c1ccc(CNc2ccc(Cc3c[nH]c4ncc(Cl)cc34)cn2)cn1 [Pexidartinib]	0.3 DSS	0.8 DSS	0.7 DSS
COc1ccc(Cl)c(Nc2nc3ccccc3nc2NS(=O)(=O)c2cccc(NC(=O)C(C)(C)N)c2)c1 [Pilaralisib]	0.8 DSS	0.7 DSS	0.8 DSS
CC[C@@H]1C(=O)OC[C@@H]1Cc1cncn1C [Pilocarpine]	0.6 DSS	0 DSS	0.2 DSS
O=C(NC[C@H](O)CO)c1ccncc1Nc1ccc(I)cc1F [Pimasertib]	26.3 DSS	16.5 DSS	7.4 DSS
